In general, IC50 refers to the concentration at which inhibition is half-maximal.

The structures appear in SMILES notation.

Assay [1] concerns the target IDH1 R132H (Homo sapiens, UniProt O75874, R132H). Put plainly: Assay for IDH1 R132H inhibitors (NADPH/aKG, resazurin detection). The conditions noted are these: enzyme assay of Example 12; read-out: IDH1R132H IC50. It counts as biochemical. Summed up:
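Compound added to substrate mix (8 uM NADPH, 2 mM aKG), then enzyme mix (0.2 μg/ml IDH1 R132H); 50 min RT in 20 mM Tris pH 7.5, 150 mM NaCl, 10 mM MgCl2, 0.03% BSA. Resazurin detection mix (30 μM) 5 min RT; resorufin fluorescence Ex544/Em590.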
A general note: The colour change of resazurin is a common sign of viable cells or microbes.

Assay [2] concerns U87MG cells. Put plainly: Cellular assay for IDH1m inhibitors: inhibition of 2-HG production (LC-MS, 48 hours) in U87MG cells. Format: cell-based. The conditions noted are these: Homo sapiens, U-87 MG, inhibition of 2-HG production, U87R132H cells; read-out: U87R132H IC50. The method in brief:
(§1)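 Cells were seeded at 5000/well in DMEM with 10% FBS, incubated overnight, then treated with compound (0.2% DMSO final) for 48 h at 37° C. Medium 2-HG was quantified by LC-MS. IC50 is the concentration reducing 2-HG by 50% versus DMSO control, and CellTiter-Glo viability was read at 72 h.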

For assay [3], the system named is HT1080 cells. The experiment in a line: Cellular assay for IDH1m inhibitors: inhibition of 2-HG production (LC-MS, 48 hours) in HT1080 cells. It counts as cell-based. Conditions: Homo sapiens, HT-1080; inhibition of 2-HG production, HT1080 cells; read-out: HT1080 IC50. Summed up:
as §1

Chain of IDH1 R132H (O75874 whole entry R132H): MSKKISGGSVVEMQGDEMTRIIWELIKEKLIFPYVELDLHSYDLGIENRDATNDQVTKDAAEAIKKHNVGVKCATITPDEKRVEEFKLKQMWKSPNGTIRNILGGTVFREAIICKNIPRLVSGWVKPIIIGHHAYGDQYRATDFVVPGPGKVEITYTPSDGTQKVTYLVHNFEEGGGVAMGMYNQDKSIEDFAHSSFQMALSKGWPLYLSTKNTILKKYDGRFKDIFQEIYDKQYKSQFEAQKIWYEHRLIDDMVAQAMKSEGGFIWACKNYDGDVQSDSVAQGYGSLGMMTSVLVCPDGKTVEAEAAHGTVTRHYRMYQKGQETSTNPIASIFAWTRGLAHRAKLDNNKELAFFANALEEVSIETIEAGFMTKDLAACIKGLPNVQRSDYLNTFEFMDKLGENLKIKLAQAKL

Take `C#Cc1ccnc(N(c2cc(C#C)ccn2)c2cc(C#N)c(N3CCN(C(=O)CCOC)[C@H](C)C3)nc2C2CC2)c1` [Compound 714, (R)-5-(bis(4-ethynylpyridin-2-yl)amino)-6-cyclopropyl-2-(4-(3-methoxypropanoyl)-3-methylpiperazin-1-yl)nicotinonitrile]: the half-maximal inhibitory concentration (IC50) in assay [1], in assay [2] and in assay [3] was below 500 nM in each case.
As to `C=Cc1cc(-c2cc(C#N)c(N3CCN(C(=O)COC)[C@H](C4CC4)C3)nc2C2CC2)cnn1` [Compound 715, (R)-6-cyclopropyl-2-(3-cyclopropyl-4-(2-methoxyacetyl)piperazin-1-yl)-5-(6-vinylpyridazin-4-yl)nicotinonitrile], the 50% inhibitory concentration (IC50) in assay [1], in assay [2] and in assay [3] was below 500 nM in each case.
On to `C=Cc1cnnc(-c2cc(C#N)c(N3CCN(C(=O)CCO)[C@H](C4CC4)C3)nc2C2CC2)c1` [Compound 716, (R)-6-cyclopropyl-2-(3-cyclopropyl-4-(3-hydroxypropanoyl)piperazin-1-yl)-5-(5-vinylpyridazin-3-yl)nicotinonitrile], for which the IC50 in assay [1], in assay [2] and in assay [3] was below 500 nM throughout.
On to `C=Cc1cc(-c2cc(C#N)c(N3CCN(C(=O)COC)[C@H](C4CC4)C3)nc2C2CC2)c2ccncc2n1` [Compound 717, (R)-6-cyclopropyl-2-(3-cyclopropyl-4-(2-methoxyacetyl)piperazin-1-yl)-5-(2-vinyl-1,7-naphthyridin-4-yl)nicotinonitrile], for which the IC50 in assay [1], in assay [2] and in assay [3] was below 500 nM throughout.
Take `COCC(=O)N1CCN(c2nc(C3CC3)c(Nc3ccnc(Cl)c3)cc2C#N)C[C@H]1C1CC1` [Compound 718, (R)-5-((2-chloropyridin-4-yl)amino)-6-cyclopropyl-2-(3-cyclopropyl-4-(2-methoxyacetyl)piperazin-1-yl)nicotinonitrile]: the half-inhibitory concentration (IC50) in assay [1] was below 500 nM; in assay [2], below 500 nM; in assay [3], 500 to 1000 nM.
On to `C=Cc1cc(-c2cc(C#N)c(N3CCN(C(=O)CCO)[C@H](C4CC4)C3)nc2C2CC2)nc(N)n1` [Compound 719, (R)-5-(2-amino-6-vinylpyrimidin-4-yl)-6-cyclopropyl-2-(3-cyclopropyl-4-(3-hydroxypropanoyl)piperazin-1-yl)nicotinonitrile], for which the concentration for half-maximal inhibition (IC50) in assay [1], in assay [2] and in assay [3] was below 500 nM each time.
With `C=Cc1ccc2ccc(-c3cc(C#N)c(N4CCN(C(=O)CCO)[C@H](C5CC5)C4)nc3C3CC3)cc2n1` [Compound 720, (R)-6-cyclopropyl-2-(3-cyclopropyl-4-(3-hydroxypropanoyl)piperazin-1-yl)-5-(2-vinylquinolin-7-yl) nicotinonitrile], the concentration for half-maximal inhibition (IC50) in assay [1], in assay [2] and in assay [3] was below 500 nM throughout.
As to `C=Cc1cc(-c2cc(C#N)c(N3CCN(C(=O)CCO)[C@H](C(C)C)C3)nc2C2CC2)ccn1` [Compound 721, (R)-2-cyclopropyl-6-(4-(3-hydroxypropanoyl)-3-isopropylpiperazin-1-yl)-2′-vinyl-3,4′-bipyridine-5-carbonitrile], the 50% inhibitory concentration (IC50) in assay [1], in assay [2] and in assay [3] was below 500 nM in each case.
`C=Cc1cc(Nc2cc(C#N)c(N3CCN(C(=O)CCO)[C@H](C4CC4)C3)nc2C2CC2)c2ccncc2n1` [Compound 722, (R)-6-cyclopropyl-2-(3-cyclopropyl-4-(3-hydroxypropanoyl)piperazin-1-yl)-5-((2-vinyl-1,7-naphthyridin-4-yl)amino)nicotinonitrile]: the IC50 in assay [1], in assay [2] and in assay [3] was below 500 nM in each case.
`C=Cc1cnnc(-c2cc(C#N)c(N3CCN(C(=O)COC)[C@H](C4CC4)C3)nc2C2CC2)c1` [Compound 724, (R)-6-cyclopropyl-2-(3-cyclopropyl-4-(2-methoxyacetyl)piperazin-1-yl)-5-(5-vinylpyridazin-3-yl)nicotinonitrile]: the IC50 in assay [1], in assay [2] and in assay [3] was below 500 nM in each case.
Regarding `C=Cc1ccnc(Nc2c(C3CC3)nc(N3CCN(C(=O)CCO)[C@H](C4CC4)C3)c(C#N)c2C)c1` [Compound 725, (R)-6-cyclopropyl-2-(3-cyclopropyl-4-(3-hydroxypropanoyl)piperazin-1-yl)-4-methyl-5-((4-vinylpyridin-2-yl)amino)nicotinonitrile], the IC50 in assay [1], in assay [2] and in assay [3] was below 500 nM each time.
`C=Cc1cc(-c2cc(C#N)c(N3CCN(C(=O)COC)[C@H](C(C)C)C3)nc2C2CC2)ccn1` [Compound 726, (R)-2-cyclopropyl-6-(3-isopropyl-4-(2-methoxyacetyl)piperazin-1-yl)-2′-vinyl-3,4′-bipyridine-5-carbonitrile]: the IC50 in assay [1], in assay [2] and in assay [3] was below 500 nM each time.
Turning to `C=CC(=O)N1CCC=C(c2cc(C#N)c(N3CCN(C(=O)CCO)[C@H](C4CC4)C3)nc2C2CC2)C1` [Compound 727, (R)-5-(1-acryloyl-1,2,5,6-tetrahydropyridin-3-yl)-6-cyclopropyl-2-(3-cyclopropyl-4-(3-hydroxypropanoyl)piperazin-1-yl)nicotinonitrile], the IC50 in assay [1], in assay [2] and in assay [3] was below 500 nM throughout.
`C=CC(=O)N1CCC=C(c2cc(C#N)c(N3CCN(C(=O)COC)[C@H](C4CC4)C3)nc2C2CC2)C1` [Compound 728, (R)-5-(1-acryloyl-1,2,5,6-tetrahydropyridin-3-yl)-6-cyclopropyl-2-(3-cyclopropyl-4-(2-methoxyacetyl)piperazin-1-yl)nicotinonitrile]: the 50% inhibitory concentration (IC50) in assay [1], in assay [2] and in assay [3] was below 500 nM each time.
Turning to `C=Cc1cc(N(C)c2cc(C#N)c(N3CCN(C(=O)CCO)[C@H](C4CC4)C3)nc2C2CC2)ccn1` [Compound 730, (R)-6-cyclopropyl-2-(3-cyclopropyl-4-(3-hydroxypropanoyl)piperazin-1-yl)-5-(methyl(2-vinylpyridin-4-yl)amino)nicotinonitrile], the IC50 in assay [1], in assay [2] and in assay [3] was below 500 nM in each case.
Turning to `C=Cc1ccc2ccc(Nc3cc(C#N)c(N4CCN(C(=O)CCOC)[C@H](C)C4)nc3C3CC3)cc2n1` [Compound 732, (R)-6-cyclopropyl-2-(4-(3-methoxypropanoyl)-3-methylpiperazin-1-yl)-5-(2-vinylquinolin-7-ylamino) nicotinonitrile], the IC50 in assay [1], in assay [2] and in assay [3] was below 500 nM in each case.
In the case of `C=Cc1ccnc(Oc2cc(C#N)c(N3CCN(C(=O)CCOC)[C@H](C4CC4)C3)nc2C2CC2)c1` [Compound 733], the results for the half-maximal inhibitory concentration (IC50) in assay [1], in assay [2] and in assay [3] were below 500 nM, below 500 nM and 500 to 1000 nM, respectively.
With `C=Cc1ccc2c(-c3cc(C#N)c(N4CCN(C(=O)CCO)[C@H](C5CC5)C4)nc3C3CC3)cncc2n1` [Compound 735, (R)-6-cyclopropyl-2-(3-cyclopropyl-4-(3-hydroxypropanoyl)piperazin-1-yl)-5-(2-vinyl-1,7-naphthyridin-5-yl)nicotinonitrile], the IC50 in assay [1], in assay [2] and in assay [3] was below 500 nM throughout.

The values above are taken from US9856279B2 (AGIOS PHARMACEUTICALS, INC, priority 2011, dated 2018).
